{"source": "patent EP0048168A2", "about": "“7-Acylamino cephalosporin compounds, their preparation and pharmaceutical formulations containing them” (ELI LILLY AND COMPANY, priority 1980, dated 1982)", "assay_in_all_cases": "In vitro antibacterial activity, agar dilution technique using serial dilution", "assay_type_in_all_cases": "cell-based", "key": {"[1]": {"system": "Bordetella bronchoseptica", "details": "Bordetella bronchoseptica strain 16; read-out: Minimum Inhibitory Concentration", "method": "(§1) The antibacterial activity of the compounds of the invention is illustrated by the in vitro activity of a preferred compound, 7β-[α-methoxyimino-α-(2-amino-1,3-thiazol-4-yl)acetamido]-3-(1-cyanomethyl-1H-tetrazol-5-ylthiomethyl)-3-cephem-4-carboxylic acid, against a wide spectrum of microorganisms. The activity was determined by the agar dilution technique using serial dilution."}, "[2]": {"system": "Citrobacter freundii", "details": "Citrobacter freundii strain CF17; read-out: Minimum Inhibitory Concentration", "method": "as §1"}, "[3]": {"system": "Enterobacter aerogenes", "details": "Klebsiella aerogenes, read-out: Minimum Inhibitory Concentration", "method": "as §1"}, "[4]": {"system": "Enterobacter cloacae", "method": "as §1"}, "[5]": {"system": "Escherichia coli", "method": "as §1"}, "[6]": {"system": "Haemophilus influenzae", "details": "read-out: Minimum Inhibitory Concentration", "method": "as §1"}, "[7]": {"system": "Klebsiella sp.", "details": "Klebsiella sp. strain KAE; read-out: Minimum Inhibitory Concentration", "method": "as §1"}, "[8]": {"system": "Proteus inconstans", "details": "Providencia alcalifaciens; Proteus inconstans strain PR33; read-out: Minimum Inhibitory Concentration", "method": "as §1"}, "[9]": {"system": "Proteus morganii", "details": "Morganella morganii; Proteus morganii strain PR15; read-out: Minimum Inhibitory Concentration", "method": "as §1"}, "[10]": {"system": "Proteus rettgeri", "details": "Providencia rettgeri", "method": "as §1"}, "[11]": {"system": "Pseudomonas aeruginosa", "method": "as §1"}, "[12]": {"system": "Salmonella sp.", "method": "as §1"}, "[13]": {"system": "Serratia marcescens", "method": "as §1"}, "[14]": {"system": "Shigella sonnei", "details": "Shigella sonnei strain N9; read-out: Minimum Inhibitory Concentration", "method": "as §1"}, "[15]": {"system": "Staphylococcus aureus", "method": "as §1"}, "[16]": {"system": "Staphylococcus epidermidis", "method": "as §1"}, "[17]": {"system": "Streptococcus Group A", "details": "Streptococcus Group A strain C203; read-out: Minimum Inhibitory Concentration", "method": "as §1"}, "[18]": {"system": "Streptococcus Group D", "details": "read-out: Minimum Inhibitory Concentration", "method": "as §1"}, "[19]": {"system": "Streptococcus pneumoniae", "details": "Streptococcus pneumoniae strain Park; read-out: Minimum Inhibitory Concentration", "method": "as §1"}}, "note": "Like-named read-outs stand apart in the source and are kept apart here.", "data": [{"smiles": "CO/N=C(\\C(=O)N[C@@H]1C(=O)N2C(C(=O)O)=C(CSc3nnnn3CC#N)CS[C@H]12)c1csc(N)n1", "note": "[syn 7β-[α-Methoximino-α-(2-amino-1,3-thiazol-4-yl)-acetamido]-3-(1-cyanomethyl-1H-tetrazol-5-ylthiomethyl)-3-cephem-4-carboxylic acid]", "values": [{"measurement": "MIC", "setting": "[1]", "result": 64, "unit": "µg/mL"}, {"measurement": "MIC", "setting": "[2]", "result": 8, "unit": "µg/mL"}, {"measurement": "MIC", "setting": "[3]; Enterobacter aerogenes strain EB17", "result": 0.25, "unit": "µg/mL"}, {"measurement": "MIC", "setting": "[3]; Enterobacter aerogenes strain X68", "result": 0.06, "unit": "µg/mL"}, {"measurement": "MIC", "setting": "[3]", "result": 0.125, "unit": "µg/mL"}, {"measurement": "MIC", "setting": "[4]; Enterobacter cloacae strain 265A, read-out: Minimum Inhibitory Concentration", "result": 32, "unit": "µg/mL"}, {"measurement": "MIC", "setting": "[4]; Enterobacter cloacae strain EB5, read-out: Minimum Inhibitory Concentration", "result": 1, "unit": "µg/mL"}, {"measurement": "MIC", "setting": "[5]; Escherichia coli strain EC14, read-out: Minimum Inhibitory Concentration", "result": 0.06, "unit": "µg/mL"}, {"measurement": "MIC", "setting": "[5]; Escherichia coli strain N10, read-out: Minimum Inhibitory Concentration", "result": 0.25, "unit": "µg/mL"}, {"measurement": "MIC", "setting": "[5]; Escherichia coli strain TEM, read-out: Minimum Inhibitory Concentration", "result": 0.06, "unit": "µg/mL"}, {"measurement": "MIC", "setting": "[6]; Haemophilus influenzae strain 76, resistant strain of H. influenzae", "result": 0.015, "unit": "µg/mL"}, {"measurement": "MIC", "setting": "[6]; Haemophilus influenzae strain C.L., sensitive strain of H. influenzae", "result": 0.03, "unit": "µg/mL"}, {"measurement": "MIC", "setting": "[7]", "result": 2, "unit": "µg/mL"}, {"measurement": "MIC", "setting": "[8]", "result": 0.125, "unit": "µg/mL"}, {"measurement": "MIC", "setting": "[9]", "result": 0.06, "unit": "µg/mL"}, {"measurement": "MIC", "setting": "[10]; read-out: Minimum Inhibitory Concentration, Proteus rettgeri strain C24", "result": 0.125, "unit": "µg/mL"}, {"measurement": "MIC", "setting": "[10]; Proteus rettgeri strain PR7, read-out: Minimum Inhibitory Concentration", "result": 0.06, "unit": "µg/mL"}, {"measurement": "MIC", "setting": "[11]; Pseudomonas aeruginosa strain Ps18, read-out: Minimum Inhibitory Concentration", "result": 32, "unit": "µg/mL"}, {"measurement": "MIC", "setting": "[11]; Pseudomonas aeruginosa strain X239, read-out: Minimum Inhibitory Concentration", "result": 16, "unit": "µg/mL"}, {"measurement": "MIC", "setting": "[11]; Pseudomonas aeruginosa strain X528, read-out: Minimum Inhibitory Concentration", "result": 16, "unit": "µg/mL"}, {"measurement": "MIC", "setting": "[12]; Salmonella sp. strain 1335, read-out: Minimum Inhibitory Concentration", "result": 0.5, "unit": "µg/mL"}, {"measurement": "MIC", "setting": "[12]; Salmonella sp. strain X514, read-out: Minimum Inhibitory Concentration", "result": 0.125, "unit": "µg/mL"}, {"measurement": "MIC", "setting": "[13]; Serratia marcescens strain 3E3, read-out: Minimum Inhibitory Concentration", "result": 0.25, "unit": "µg/mL"}, {"measurement": "MIC", "setting": "[13]; Serratia marcescens, read-out: Minimum Inhibitory Concentration, Serratia marcescens strain X93", "result": 0.125, "unit": "µg/mL"}, {"measurement": "MIC", "setting": "[14]", "result": 0.125, "unit": "µg/mL"}, {"measurement": "MIC", "setting": "[15]; Staphylococcus aureus strain V41, read-out: Minimum Inhibitory Concentration", "result": 4, "unit": "µg/mL"}, {"measurement": "MIC", "setting": "[15]; Staphylococcus aureus strain X1.1, read-out: Minimum Inhibitory Concentration", "result": 1, "unit": "µg/mL"}, {"measurement": "MIC", "setting": "[15]; Staphylococcus aureus strain X400, read-out: Minimum Inhibitory Concentration", "result": 32, "unit": "µg/mL"}, {"measurement": "MIC", "setting": "[15]; read-out: Minimum Inhibitory Concentration", "result": 8, "unit": "µg/mL"}, {"measurement": "MIC", "setting": "[16]; Staphylococcus epidermidis strain EPI1, read-out: Minimum Inhibitory Concentration", "result": 4, "unit": "µg/mL"}, {"measurement": "MIC", "setting": "[16]; Staphylococcus epidermidis strain EPI2, read-out: Minimum Inhibitory Concentration", "result": 8, "unit": "µg/mL"}, {"measurement": "MIC", "setting": "[17]", "result": 0.015, "unit": "µg/mL"}, {"measurement": "MIC", "setting": "[18]; Streptococcus Group D strain 9960", "result": 128, "unit": "µg/mL"}, {"measurement": "MIC", "setting": "[18]; Streptococcus Group D strain X66", "result": "> 128", "unit": "µg/mL"}, {"measurement": "MIC", "setting": "[19]", "result": 0.03, "unit": "µg/mL"}]}]}
